# Results from patent US12594276B2, “Inhibitors of human immunodeficiency virus replication” (ViiV Healthcare UK (No.5) Limited, priority 2024, dated 2026).
# How the values were obtained:
# [1] = tested on: recombinant NL4-3 virus (nef section replaced with Renilla luciferase gene) in MT-2 cells; experiment: HIV cell culture assay (antiviral activity, luciferase readout); format: cell-based; conditions: Renilla, NL43, MT-2 cells infected for 4-5 days with recombinant NL4-3 Renilla luciferase virus
# Summary of the method: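 Compound activity was measured as reduction of luciferase in MT-2 cells infected for 4-5 days with serially diluted compound present. EC50 values were calculated with the median effect equation.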
# [2] = Compound cytotoxicity, XTT-based colorimetric assay; format: cell-based; conditions: human; uninfected MT2 cells, day 4, XTT; read-out: CC50
# Summary of the method: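 Uninfected MT2 cells, antiviral-assay protocol without virus; XTT colorimetric readout day 4; CC50 reported.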
Compound,EC50 [1] [pM],CC50 at 4 days [2] [pM]
"Cc1cc(C2(F)CCC(F)(F)CC2)nc2nc([C@H](Cc3cc(F)cc(F)c3)NC(=O)Cn3nc(C(F)F)c4c3C[C@@H]3C[C@H]43)n(-c3ccc(Cl)c4c(NS(C)(=O)=O)nn(CCN5C[C@H](F)C[C@H](F)C5)c34)c(=O)c12 (atropisomer, axis not shown; (P)) [Example 571, N-[(1S)-1-[(3P)-3-(4-chloro-1-{2-[(3R,5S)-3,5-difluoropiperidin-1-yl]ethyl}-3-methanesulfonamido-1H-indazol-7-yl)-5-methyl-4-oxo-7-(1,4,4-trifluorocyclohexyl)-3H,4H-pyrido[2,3-d]pyrimidin-2-yl]-2-(3,5-difluorophenyl)ethyl]-2-[(2S,4S)-9-(difluoromethyl)-7,8-diazatricyclo[4.3.0.0^2,^4]nona-1(6),8-dien-7-yl]acetamide]",14,> 20000
"Cc1cc(C2(F)CCC(F)(F)CC2)nc2nc([C@H](Cc3cc(F)cc(F)c3)NC(=O)Cn3nc(C(F)(F)F)c4c3C[C@@H]3C[C@H]43)n(-c3ccc(Cl)c4c(NS(C)(=O)=O)nn(CCN5C[C@H](F)C[C@H](F)C5)c34)c(=O)c12 (atropisomer, axis not shown; (P)) [Example 572, N-[(1S)-1-[(3P)-3-(4-chloro-1-{2-[(3R,5S)-3,5-difluoropiperidin-1-yl]ethyl}-3-methanesulfonamido-1H-indazol-7-yl)-5-methyl-4-oxo-7-(1,4,4-trifluorocyclohexyl)-3H,4H-pyrido[2,3-d]pyrimidin-2-yl]-2-(3,5-difluorophenyl)ethyl]-2-[(2S,4S)-9-(trifluoromethyl)-7,8-diazatricyclo[4.3.0.0^2,^4]nona-1(6),8-dien-7-yl]acetamide]",15,> 20000
"Cc1cc(C2(F)CCC(F)(F)CC2)nc2nc([C@H](Cc3cc(F)cc(F)c3)NC(=O)Cn3nc([C@H]4CC4(F)F)c4c3C[C@H]3C[C@@H]43)n(-c3ccc(Cl)c4c(NS(C)(=O)=O)nn(CCN5C[C@H](F)C[C@H](F)C5)c34)c(=O)c12 (atropisomer, axis not shown; (P)) [Example 573, N-[(1S)-1-[(3P)-3-(4-chloro-1-{2-[(3R,5S)-3,5-difluoropiperidin-1-yl]ethyl}-3-methanesulfonamido-1H-indazol-7-yl)-5-methyl-4-oxo-7-(1,4,4-trifluorocyclohexyl)-3H,4H-pyrido[2,3-d]pyrimidin-2-yl]-2-(3,5-difluorophenyl)ethyl]-2-[(2R,4R)-9-[(1R)-2,2-difluorocyclopropyl]-7,8-diazatricyclo[4.3.0.0^2,^4]nona-1(6),8-dien-7-yl]acetamide]",12,> 20000
"Cc1cc(C2(F)CCC(F)(F)CC2)nc2nc([C@H](Cc3cc(F)cc(F)c3)NC(=O)Cn3nc(C(F)F)c4c3C(F)(F)[C@@H]3C[C@H]43)n(-c3ccc(Cl)c4c(NS(C)(=O)=O)nn(CCN5CCO[C@@H](C(C)C)C5)c34)c(=O)c12 (atropisomer, axis not shown; (P)) [Example 574, N-[(1S)-1-[(3P)-3-(4-chloro-3-methanesulfonamido-1-{2-[(2S)-2-(propan-2-yl)morpholin-4-yl]ethyl}-1H-indazol-7-yl)-5-methyl-4-oxo-7-(1,4,4-trifluorocyclohexyl)-3H,4H-pyrido[2,3-d]pyrimidin-2-yl]-2-(3,5-difluorophenyl)ethyl]-2-[(2S,4R)-9-(difluoromethyl)-5,5-difluoro-7,8-diazatricyclo[4.3.0.0^2,^4]nona-1(6),8-dien-7-yl]acetamide]",19,> 20000
"Cc1cc(C2(F)CCC(F)(F)CC2)nc2nc([C@H](Cc3cc(F)cc(F)c3)NC(=O)Cn3nc(C(F)F)c4c3C(F)(F)[C@@H]3C[C@H]43)n(-c3ccc(Cl)c4c(NS(C)(=O)=O)nn(CCN5CCO[C@H](C(C)C)C5)c34)c(=O)c12 (atropisomer, axis not shown; (P)) [Example 575, N-[(1S)-1-[(3P)-3-(4-chloro-3-methanesulfonamido-1-{2-[(2R)-2-(propan-2-yl)morpholin-4-yl]ethyl}-1H-indazol-7-yl)-5-methyl-4-oxo-7-(1,4,4-trifluorocyclohexyl)-3H,4H-pyrido[2,3-d]pyrimidin-2-yl]-2-(3,5-difluorophenyl)ethyl]-2-[(2S,4R)-9-(difluoromethyl)-5,5-difluoro-7,8-diazatricyclo[4.3.0.0^2,^4]nona-1(6),8-dien-7-yl]acetamide]",12,> 20000
"Cc1cc(C2(F)CCC(F)(F)CC2)nc2nc([C@H](Cc3cc(F)cc(F)c3)NC(=O)Cn3nc(C(F)F)c4c3C(F)(F)[C@@H]3C[C@H]43)n(-c3ccc(Cl)c4c(NS(C)(=O)=O)nn(CCN5C[C@H](C)OC(C)(C)C5)c34)c(=O)c12 (atropisomer, axis not shown; (P)) [Example 576]",10,> 20000
"Cc1cc(C2(F)CCC(F)(F)CC2)nc2nc([C@H](Cc3cc(F)cc(F)c3)NC(=O)Cn3nc(C(F)F)c4c3C(F)(F)[C@@H]3C[C@H]43)n(-c3ccc(Cl)c4c(NS(C)(=O)=O)nn(CCN5C[C@@H](C)OC(C)(C)C5)c34)c(=O)c12 (atropisomer, axis not shown; (P)) [Example 577, N-[(1S)-1-[(3P)-3-(4-chloro-3-methanesulfonamido-1-{2-[(6R)-2,2,6-trimethylmorpholin-4-yl]ethyl}-1H-indazol-7-yl)-5-methyl-4-oxo-7-(1,4,4-trifluorocyclohexyl)-3H,4H-pyrido[2,3-d]pyrimidin-2-yl]-2-(3,5-difluorophenyl)ethyl]-2-[(2S,4R)-9-(difluoromethyl)-5,5-difluoro-7,8-diazatricyclo[4.3.0.0^2,^4]nona-1(6),8-dien-7-yl]acetamide]",14,> 20000
"Cc1cc(C2(F)CCC(F)(F)CC2)nc2nc([C@H](Cc3cc(F)cc(F)c3)NC(=O)Cn3nc(C(F)F)c4c3C(F)(F)[C@@H]3C[C@H]43)n(-c3ccc(Cl)c4c(NS(C)(=O)=O)nn(CCN5CCOC(C)(C)C5)c34)c(=O)c12 (atropisomer, axis not shown; (P)) [Example 578, N-[(1S)-1-[(3P)-3-{4-chloro-1-[2-(2,2-dimethylmorpholin-4-yl)ethyl]-3-methanesulfonamido-1H-indazol-7-yl}-5-methyl-4-oxo-7-(1,4,4-trifluorocyclohexyl)-3H,4H-pyrido[2,3-d]pyrimidin-2-yl]-2-(3,5-difluorophenyl)ethyl]-2-[(2S,4R)-9-(difluoromethyl)-5,5-difluoro-7,8-diazatricyclo[4.3.0.0^2,^4]nona-1(6),8-dien-7-yl]acetamide]",8,> 20000
"Cc1cc(C2(F)CCC(F)(F)CC2)nc2nc([C@H](Cc3cc(F)cc(F)c3)NC(=O)Cn3nc(C(F)F)c4c3C(F)(F)[C@@H]3C[C@H]43)n(-c3ccc(Cl)c4c(NS(C)(=O)=O)nn(CCN5CCOCC5(C)C)c34)c(=O)c12 (atropisomer, axis not shown; (P)) [Example 579, N-[(1S)-1-[(3P)-3-{4-chloro-1-[2-(3,3-dimethylmorpholin-4-yl)ethyl]-3-methanesulfonamido-1H-indazol-7-yl}-5-methyl-4-oxo-7-(1,4,4-trifluorocyclohexyl)-3H,4H-pyrido[2,3-d]pyrimidin-2-yl]-2-(3,5-difluorophenyl)ethyl]-2-[(2S,4R)-9-(difluoromethyl)-5,5-difluoro-7,8-diazatricyclo[4.3.0.0^2,^4]nona-1(6),8-dien-7-yl]acetamide]",11,> 20000
"Cc1cc(C2(F)CCC(F)(F)CC2)nc2nc([C@H](Cc3cc(F)cc(F)c3)NC(=O)Cn3nc(C4CC4)c4c3C[C@@H]3C[C@H]43)n(-c3ccc(Cl)c4c(NS(C)(=O)=O)nn(CCN5CCO[C@@H](C(C)C)C5)c34)c(=O)c12 (atropisomer, axis not shown; (P)) [Example 581, N-[(1S)-1-[(3P)-3-(4-chloro-3-methanesulfonamido-1-{2-[(2S)-2-(propan-2-yl)morpholin-4-yl]ethyl}-1H-indazol-7-yl)-5-methyl-4-oxo-7-(1,4,4-trifluorocyclohexyl)-3H,4H-pyrido[2,3-d]pyrimidin-2-yl]-2-(3,5-difluorophenyl)ethyl]-2-[(2S,4S)-9-cyclopropyl-7,8-diazatricyclo[4.3.0.0^2,^4]nona-1(6),8-dien-7-yl]acetamide]",15,> 20000
"Cc1cc(C2(F)CCC(F)(F)CC2)nc2nc([C@H](Cc3cc(F)cc(F)c3)NC(=O)Cn3nc(C4CC4)c4c3C[C@@H]3C[C@H]43)n(-c3ccc(Cl)c4c(NS(C)(=O)=O)nn(CCN5CCO[C@H](C(C)C)C5)c34)c(=O)c12 (atropisomer, axis not shown; (P)) [Example 582, N-[(1S)-1-[(3P)-3-(4-chloro-3-methanesulfonamido-1-{2-[(2R)-2-(propan-2-yl)morpholin-4-yl]ethyl}-1H-indazol-7-yl)-5-methyl-4-oxo-7-(1,4,4-trifluorocyclohexyl)-3H,4H-pyrido[2,3-d]pyrimidin-2-yl]-2-(3,5-difluorophenyl)ethyl]-2-[(2S,4S)-9-cyclopropyl-7,8-diazatricyclo[4.3.0.0^2,^4]nona-1(6),8-dien-7-yl]acetamide]",17,> 20000
"Cc1cc(C2(F)CCC(F)(F)CC2)nc2nc([C@H](Cc3cc(F)cc(F)c3)NC(=O)Cn3nc(C4CC4)c4c3C[C@@H]3C[C@H]43)n(-c3ccc(Cl)c4c(NS(C)(=O)=O)nn(CCN5C[C@H](C)OC(C)(C)C5)c34)c(=O)c12 (atropisomer, axis not shown; (P)) [Example 583, N-[(1S)-1-[(3P)-3-(4-chloro-3-methanesulfonamido-1-{2-[(6S)-2,2,6-trimethylmorpholin-4-yl]ethyl}-1H-indazol-7-yl)-5-methyl-4-oxo-7-(1,4,4-trifluorocyclohexyl)-3H,4H-pyrido[2,3-d]pyrimidin-2-yl]-2-(3,5-difluorophenyl)ethyl]-2-[(2S,4S)-9-cyclopropyl-7,8-diazatricyclo[4.3.0.0^2,^4]nona-1(6),8-dien-7-yl]acetamide]",31,> 20000
